In patent US12486228B2, “N-substituted indoles and use as allosteric modulators of cannabinoid receptors” (priority 2018, dated 2025):
pEC50: −log10 of the molar value. Read-outs that look alike come from different tables or passages of the source.

What was measured:
Assay in all cases: cell-based
[1] = biological target: T1, hCB1 (Homo sapiens, UniProt P21554); set-up: host or cells: CHO-K1 PathHunter
Procedure: PathHunter CB1 β-Arrestin Assay: Chinese hamster ovary K1 (CHO-K1)-PathHunter hCB1 β-arrestin cells (DiscoveRx, Fremont, CA) were seeded at 5000 cells/well in 384-well plates 24 h before use and incubated at 37° C., 5% CO2. Compounds were dissolved in dimethyl sulfoxide (DMSO) and diluted in optimized cell culture (OCC) media. Agonist EC80 was determined directly from an agonist dose—response curve (data not shown). […] Five microliters of allosteric modulator or vehicle solution was added to each well at the appropriate concentrations and incubated for 30 min. Five microliters of agonist was then added to each well followed by a 90 min incubation. Fifteen microliters of detection reagent was then added followed by further 60 min incubation at room temperature. Chemiluminescence was measured on a standard luminescence plate reader as relative light units (RLU). Basal RLU was defined as zero. […] Data were analyzed using the fourparameter variable-slope and allosteric EC50 shift nonlinear regression equations in Prism 5.0 (GraphPad, San Diego, CA).

[2] = biological target: T2, CB2 (Homo sapiens, UniProt P34972); settings: for pEC50 / Emax: CB2, agonist mode; for pEC50: read-out: CB2 Agonist mode cAMP EC50; for Emax: read-out: CB2 Agonist mode cAMP Emax
T2 sequence (P34972 whole entry, species assumed): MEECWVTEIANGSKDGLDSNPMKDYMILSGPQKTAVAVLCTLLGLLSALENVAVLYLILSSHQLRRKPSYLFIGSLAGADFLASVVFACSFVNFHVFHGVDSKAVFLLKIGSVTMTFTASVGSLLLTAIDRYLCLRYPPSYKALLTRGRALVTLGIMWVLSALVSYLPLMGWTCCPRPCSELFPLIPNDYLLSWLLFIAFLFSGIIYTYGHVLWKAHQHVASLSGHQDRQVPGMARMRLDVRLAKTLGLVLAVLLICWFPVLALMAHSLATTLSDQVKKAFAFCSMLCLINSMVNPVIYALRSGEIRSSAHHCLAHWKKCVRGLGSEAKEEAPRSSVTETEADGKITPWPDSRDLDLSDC

[3] = biological target: T1, hCB1; set-up: host or cells: CHO-K1
Procedure: HitHunter cAMP assay: Inhibition of forskolin-stimulated cAMP was determined using the DiscoveRx HitHunter assay in hCB1R CHO-K1 cells. Cells (20,000 cells/well in low-volume 96 well plates) were incubated overnight in Opti-MEM (Invitrogen) containing 1% FBS at 37° C. and 5% CO2. Following this, Opti-MEM media was removed and replaced with cell assay buffer (DiscoveRx) and cells were co-treated at 37° C. with 10 μM forskolin and hCB1R ligands (0.10 nM-10 μM) for 30 min or 90 min cAMP antibody solution and cAMP working detection solutions were then added to cells according to the manufacturer's directions (DiscoveRx®) and cells were incubated for 60 min at room temperature. cAMP solution A was added according to the manufacturer's directions (DiscoveRx®) and cells were incubated for an additional 60 min at room temperature before chemiluminescence was measured on a Cytation 5 plate reader (top read, gain 200, integration time 10,000 ms).

[4] = biological target: T2, CB2; settings: for pEC50 / Emax: CB2, agonist mode; for pEC50: read-out: CB2 Agonist mode β-Arrestin EC50; for Emax: read-out: CB2 Agonist mode β-Arrestin Emax
[5] = CB1, PAM mode, read-out: CB1 PAM mode β-Arrestin EC50
[6] = CB1, agonist mode, read-out: CB1 Agonist mode β-Arrestin EC50
[7] = read-out: CB1 Agonist mode β-Arrestin Emax
[8] = read-out: CB1 PAM mode β-Arrestin Emax
[9] = CB1, PAM mode, read-out: CB1 PAM mode cAMP EC50
[10] = CB1, agonist mode, read-out: CB1 Agonist mode cAMP EC50
[11] = read-out: CB1 Agonist mode cAMP Emax, CB1, agonist mode
[12] = read-out: CB1 PAM mode cAMP Emax, CB1, PAM mode

T1 sequence (P21554 whole entry): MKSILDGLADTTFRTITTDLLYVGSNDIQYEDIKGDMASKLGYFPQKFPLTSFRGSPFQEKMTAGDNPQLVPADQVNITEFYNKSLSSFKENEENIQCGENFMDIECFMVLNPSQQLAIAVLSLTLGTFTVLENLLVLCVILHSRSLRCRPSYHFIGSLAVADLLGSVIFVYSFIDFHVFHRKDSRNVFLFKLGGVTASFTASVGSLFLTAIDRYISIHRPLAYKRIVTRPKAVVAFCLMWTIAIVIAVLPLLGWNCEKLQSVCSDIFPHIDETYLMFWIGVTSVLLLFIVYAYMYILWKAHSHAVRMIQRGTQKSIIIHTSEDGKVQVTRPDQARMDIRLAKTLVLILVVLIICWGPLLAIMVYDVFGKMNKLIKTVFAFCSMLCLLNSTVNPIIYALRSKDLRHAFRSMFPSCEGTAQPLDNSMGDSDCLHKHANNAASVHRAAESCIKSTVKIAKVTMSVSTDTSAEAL

## O=C(O)CCC(c1ccccc1)c1cn(Cc2ccccc2)c2ccccc12 (centres unmarked) [Compound 18, 4-(1-Penzyl-1H-indol-3-yl)-4-phenylbutanoic acid]
[1]; [5]
  pEC50: < 5.00
[1]; [6]
  pEC50: < 5.00
[1]; [7]
  Emax: 0%
[1]; [8]
  Emax: 0%
[2]
  pEC50: 6.39
  Emax: 64%
[3]; [9]
  pEC50: 6.21
[3]; [10]
  pEC50: 5.98
[3]; [11]
  Emax: 87%
[3]; [12]
  Emax: 97%
[4]
  pEC50: < 5.00
  Emax: 0%

## O=C(O)CCC(c1ccccc1)c1c[nH]c2ccccc12 (centres unmarked) [Compound 28, 4-(1H-Pndol-3-yl)-4-phenylbutanoic acid]
[1]; [5]
  pEC50: < 5.00
[1]; [6]
  pEC50: < 5.00
[1]; [7]
  Emax: 0%
[1]; [8]
  Emax: 0%
[2]
  pEC50: < 5.00
  Emax: 29%
[3]; [9]
  pEC50: 5.36
[3]; [10]
  pEC50: 5.01
[3]; [11]
  Emax: 60%
[3]; [12]
  Emax: 71%
[4]
  pEC50: < 5.00
  Emax: 0%

## CC(=O)CC(C)C(c1ccccc1)c1cn(-c2ccccc2)c2ccccc12 (centres unmarked) [Compound 42, 4-Methyl-5-phenyl-5-(1-phenyl-1H-indol-3-yl)pentan-2-one]
[1]; CB1, PAM mode
  CB1 PAM mode β-Arrestin Emax: (0) %
[1]; CB1, agonist mode
  CB1 Agonist mode β-Arrestin Emax: (0) %
[2]
  CB2 Agonist mode cAMP Emax: (0) %
[3]; CB1, PAM mode
  CB1 PAM mode cAMP Emax: (0) %
[3]; [9]
  pEC50: < 5.00
[3]; CB1, agonist mode
  CB1 Agonist mode cAMP Emax: (0) %
[4]
  CB2 Agonist mode β-Arrestin Emax: 0%
  pEC50: < 5.00

## Cc1ccc2c(C(CCC(=O)O)c3ccccc3)cn(-c3ccccc3)c2c1 (centres unmarked) [Compound 17, 4-(6-Methyl-1-phenyl-1H-indol-3-yl)-4-phenylbutanoic acid]
[1]; [5]
  pEC50: < 5.00
[1]; [6]
  pEC50: < 5.00
[1]; [7]
  Emax: 0%
[1]; [8]
  Emax: 0%
[2]
  pEC50: 6.00
  Emax: 74%
[3]; [9]
  pEC50: 5.84
[3]; [10]
  pEC50: 5.90
[3]; [11]
  Emax: 73%
[3]; [12]
  Emax: 93%
[4]
  pEC50: < 5.00
  Emax: 0%

## O=C(O)CC=C(c1ccccc1)c1cn(-c2ccccc2)c2ccccc12 (mixture of isomers) [Compound 16, (E and Z)-4-Phenyl-4-(1-phenyl-1H-indol-3-yl)but-3-enoic acid]
[1]; [5]
  pEC50: < 5.00
[1]; [6]
  pEC50: < 5.00
[1]; [7]
  Emax: 0%
[1]; [8]
  Emax: 0%
[2]
  pEC50: 6.44
  Emax: 80%
[3]; [9]
  pEC50: 6.03
[3]; [10]
  pEC50: 6.16
[3]; [11]
  Emax: 94%
[3]; [12]
  Emax: 104%
[4]
  pEC50: < 5.00
  Emax: 0%

## O=C(O)CCCC(c1ccccc1)c1cn(-c2ccccc2)c2ccccc12 (centres unmarked) [Compound 19, 5-Phenyl-5-(1-phenyl-1H-indol-3-yl)pentanoic acid]
[1]; [5]
  pEC50: < 5.00
[1]; [6]
  pEC50: < 5.00
[1]; [7]
  Emax: 0%
[1]; [8]
  Emax: 0%
[2]
  pEC50: 6.18
  Emax: 95%
[3]; [9]
  pEC50: 5.85
[3]; [10]
  pEC50: 6.08
[3]; [11]
  Emax: 98%
[3]; [12]
  Emax: 98%
[4]
  pEC50: < 5.00
  Emax: 0%

## O=C(O)/C=C\C(c1ccccc1)c1cn(-c2ccccc2)c2ccccc12 (centres unmarked) [Compound 15, (Z)-4-phenyl-4-(1-phenyl-1H-indol-3-yl)but-2-enoic acid]
[1]; [5]
  pEC50: < 5.00
[1]; [6]
  pEC50: < 5.00
[1]; [7]
  Emax: 0%
[1]; [8]
  Emax: 0%
[2]
  pEC50: 5.98
  Emax: 81%
[3]; [9]
  pEC50: 6.19
[3]; [10]
  pEC50: 6.30
[3]; [11]
  Emax: 86%
[3]; [12]
  Emax: 84%
[4]
  pEC50: < 5.00
  Emax: 0%
